The source of these data is patent publication US8716355B2, “Hydroxylated tolans and related compounds in the treatment of a cancer” (Kent State University, priority 2007, dated 2014).

For experiment [1], the system named is NCIH460. Put plainly: MTT cytotoxicity, NCIH460 lung. The format is cell-based. The note with it: Homo sapiens, NCI-H460, 72 h; 3 Days; read-out: CD50 (μM) NCIH460. The procedure: (§1) Cell killing was evaluated using the colorimetric MTT assay. The assay measures the formation of a colored product from a chromogenic precursor, the tetrazole 3-[4,5-dimethylthiazol-2-yl]-2,5 diphenyltetrazolium bromide (MTT). The yellow MTT is reduced to purple formazan in the mitochondria of living cells. A solubilization solution (typically dimethyl sulfoxide or sodium dodecyl sulfate in dilute hydrochloric acid) is added to dissolve the insoluble purple formazan product into a colored solution. The absorbance of this colored solution is quantified by measuring at a certain wavelength (usually between 500 and 600 nm) by a spectrophotometer. The amount of purple formazan product generated is proportional to the number of viable cells (Mosmann, T., 1983, J. Immunol. Meth. 65:55-63; Wilson, A. P., Cytotoxicity and Viability Assays. In: Animal Cell Culture: A Practical Approach, 3rd ed. (Masters, J R W, ed.) Oxford University Press: Oxford, Vol. 1, pp. 175-219. 2000). This MTT assay is used widely to assess the cytotoxicity and selectivity of compounds such as anti-cancer drugs. The assay is suitable for rapid toxicity characterization of a test agent such as a drug formulation. […] A lower CD50 indicates a greater cytotoxic activity (as a lower amount of the agent is needed to achieve a fixed level of cytotoxicity). […]

For experiment [2], the system named is A375. Put plainly: MTT cytotoxicity, A375 melanoma. The format is cell-based. The note with it: Homo sapiens, A-375, 72 h; 3 Days; read-out: CD50 (μM) A375. The procedure:
as §1

The subject of experiment [3] is NF-κB p65. Put plainly: NF-κB p65 DNA-binding activity in DU145 cells (ELISA). The format is cell-based, human. The note with it: for DNA binding of p65, % of basal activity: 100 μM. As for the experimental part:
An ELISA kit (Pierce, Rockford, Ill.) was used to detect the active forms of NF-κB p65 by measuring its binding to a consensus DNA sequence. A primary antibody specific for p65 and a secondary horse-radish peroxidase (HRP)-conjugated antibody were used sequentially to produce immobilized p65-HRP complexes. A chemiluminescent substrate for HRP was added and the reaction read using the Fluoroskan Ascent FL plate reader
An ELISA kit (Pierce, Rockford, Ill.) was used to detect the active forms of NF-κB p65 by measuring its binding to a consensus DNA sequence. […] As controls, untreated cells were prepared under the same conditions. Cells were collected by scraping and incubated in ice-cold RIPA lysis buffer containing 1% NP40, 0.5% sodium deoxycholate, 0.1% SDS and protease inhibitor cocktail. After centrifugation, the supernatant was transferred to a streptavidin-coated 96-well plate. Active p65 in the sample binds to the immobilized DNA molecules.
To ensure the signal specificity, competitive DNA fragments containing a NF-κB binding site were used to prevent the binding of NF-κB to the consensus sequence. A primary antibody specific for p65 and a secondary HRP-conjugated antibody were added to each well sequentially, resulting in an immobilized p65-HRP complex. Unbound antibodies were washed away. A mixture of luminol/enhancer and peroxide solution was added into each well as a chemiluminescent substrate for HRP. The chemiluminescent signal, proportional to the relative amount of active p65 in the sample, was detected using the Fluoroskan Ascent FL plate reader (Thermo, Waltham, Mass.).
DNA sequences containing p65-binding site were immobilized to wells of 96-well plates, allowing activated p65 to bind. After washing, the amount of bound p65 was detected and quantified by the above method. The DNA-binding of active p65 was determined by the intensity of chemiluminescence produced by DNA-p65-HRP complex immobilized on well surfaces. The results represent the mean±SD of triplicate determinations. An inhibitor of p65 binding to DNA was added to confirm specificity. […]
(In general: In an ELISA, binding on a coated surface is turned into a signal by an enzyme label.)

In experiment [4] the target is T1, ovine COX-1 (Ovis aries, UniProt P05979).
T1 construct: purchased Cayman Chemical 560131
T1 sequence (P05979 25-600): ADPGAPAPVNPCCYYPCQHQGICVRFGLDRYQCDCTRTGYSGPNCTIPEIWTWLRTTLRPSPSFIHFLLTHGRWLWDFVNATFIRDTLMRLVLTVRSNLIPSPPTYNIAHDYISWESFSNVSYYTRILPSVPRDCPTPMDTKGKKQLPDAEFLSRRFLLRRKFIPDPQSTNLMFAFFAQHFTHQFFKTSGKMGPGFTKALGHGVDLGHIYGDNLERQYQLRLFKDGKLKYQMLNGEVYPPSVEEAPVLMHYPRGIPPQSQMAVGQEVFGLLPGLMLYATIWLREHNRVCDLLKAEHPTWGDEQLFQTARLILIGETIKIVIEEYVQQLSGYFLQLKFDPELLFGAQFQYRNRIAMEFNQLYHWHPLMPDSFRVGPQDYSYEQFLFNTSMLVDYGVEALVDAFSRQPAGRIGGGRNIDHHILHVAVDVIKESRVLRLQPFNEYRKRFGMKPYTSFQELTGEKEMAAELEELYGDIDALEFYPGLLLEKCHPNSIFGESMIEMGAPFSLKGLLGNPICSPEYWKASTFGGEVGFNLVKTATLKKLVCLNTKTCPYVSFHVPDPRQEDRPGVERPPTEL
Nature of the experiment: COX Inhibitor Screening Assay, COX1. The format is biochemical. The procedure:
The indicated concentration of these agents were tested in the presence of COX1. COX activity was quantified by measuring the amount of final product PGF2α which competed with acetylcholinesterase (AChE)-linked PGs for binding to its antibody immobilized to the surface of microplate wells. Color was developed by adding an AChE substrate and was inversely related to the amount of PGF2α±SD of triplicate determinations.
The prostanoid product can be quantified via enzyme immunoassay (EIA) using a broadly specific antibody that binds to all the major prostaglandin compounds. COX assays from Cayman Chemical, Ann Arbor, Mich., are more accurate and reliable than assays based on peroxidase inhibition. The Cayman COX Inhibitor Screening Assay includes both ovine COX-1 and human recombinant COX-2 enzymes in order to screen isozyme-specific inhibitors. This assay is an excellent tool which can be used for general inhibitor screening.
COX was assayed by measuring production of PGF2, generated by stannous chloride (SnCl2) in the presence of PGH2 using a commercial kit from Cayman Chemical, (Ovine COX Inhibitor Screening Assay, Catalog #560131). […]
A 96-well plate coated with mouse anti-rabbit IgG was then used and various components were added—assay standards, nonspecific binding controls, maximum binding controls, and the inhibitor dilutions—along with the tracer and antiserum. The plate was incubated at room temperature for 18 hours, washed five times with wash buffer, developed with Ellman's Reagent and the colored reaction product was read on an automatic microplate reader at 410 nm. The IC50 for the respective COX enzyme was graphically determined from a three-point curve. […]
The intensity of color was inversely proportional to the amount of free prostaglandins quantitatively representing the COX enzymatic activity, under the influence of the test compounds.
As noted, COX activity was quantified by measuring the amount of final product PGF2-α which competed with AChE-linked PGs for binding to an antibody immobilized to microplates. […]

Regarding `Oc1ccc(/C=C/c2cc(O)cc(O)c2)cc1` [Resveratrol, 3,5,4′-trihydroxy-trans-stilbene, reference compound], the IC50 in experiment [1] was 43 ± 20 µM; in experiment [2], 19 ± 0.2 µM. Besides, the “DNA binding of p65, % of basal activity” value was 55.3% in experiment [3] (12 hours) and 40.2% in experiment [3] (24 hours). Moreover, the “DNA binding activity of p65, % of basal activity” value in experiment [3] (24-hour treatment at 5, 25 and 50 μM) is given as approximately 80%. Besides, the COX1 enzymatic activity entry in experiment [4] (high end of 10 μM to 200 μM) is listed as “complete inhibition”. The “COX1 enzymatic activity, % of initial activity” value in experiment [4] (low end of 10 μM to 200 μM) is given as 5%.

Take `Oc1ccc(C#Cc2ccc(O)cc2)cc1` [KST-201, 4,4′-dihydroxytolan]: the IC50 is 42 ± 2 µM in experiment [1] and 4.6 ± 0.1 µM in experiment [2]. Moreover, in experiment [3] (12-hour treatment), the “Reduction of DNA-binding activity of NF-κB by at least 50%” value is recorded as “not sufficient to reduce DNA-binding activity of NF-κB”. For the same molecule, the “NF-κB inhibition compared with resveratrol” value in experiment [3] (24-hour treatment, 50 and 100 μM) is “more effective inhibitor of NF-κB”. Also, the “Inhibition of COX1 activity” value in experiment [4] (doses of 10 to 200 μM tested) was “about 50%”.
